Data reported in patent US20240294519A1, “PYRROLO[2,3-b]PYRIDINE PGDH INHIBITORS AND METHODS OF MAKING AND USING” (EPIRIUM BIO INC., priority 2021, published 2024).
Several values for one entry are separate records, joined by “and”; a condition that tells them apart may be missing. Identical values can stand only once.

Experiments:
15-PGDH/HPGD = target: T1, 15-PGDH/HPGD (Homo sapiens, UniProt P15428); test: hPGDH inhibitor screening biochemical assay; conditions: 10 nM enzyme, 15 μM PGE2, 0.25 mM NAD, fluorescence ex/em 340/485 nm
T1 construct: purchased R&D System 5660-DH
T1 sequence (P15428 1-266): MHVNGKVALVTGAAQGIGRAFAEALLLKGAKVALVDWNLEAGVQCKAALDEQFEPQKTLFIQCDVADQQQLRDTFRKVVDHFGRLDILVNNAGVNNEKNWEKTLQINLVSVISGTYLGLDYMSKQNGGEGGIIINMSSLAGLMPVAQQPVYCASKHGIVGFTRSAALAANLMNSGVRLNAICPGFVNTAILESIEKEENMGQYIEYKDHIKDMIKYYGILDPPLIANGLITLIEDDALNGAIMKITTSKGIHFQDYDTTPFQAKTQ
How it was run: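 Recombinant human 15-PGDH (10 nM) was preincubated with compound for 10 min at 37° C in 50 mM Tris-HCl pH 7.5 with 0.01% Tween 20. Reaction with 15 μM PGE2 and 0.25 mM NAD+ ran 10 min at room temperature, read by fluorescence at ex/em 340/485 nm. IC50 was derived from 10-point curves, relative to 1% DMSO.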

15-PGDH = target: T2, 15-PGDH (Homo sapiens, UniProt P15428); test: A549 cell based assay: PGE2 in supernatant after IL-1β (HTRF); conditions: A549 cells, fold induction of PGE2, IL-1β plus test article versus IL-1β only
T2 construct: 15-PGDH is highly expressed in resting human lung adenocarcinoma cells (A549); endogenous in cells; host or cells: A549
T2 sequence (P15428 1-266): T1 sequence (P15428 1-266)
Description: Cell Based Assay: 15-PGDH is highly expressed in resting human lung adenocarcinoma cells (A549) (Tong et al., 2006), and this cell line was used to assess 15-PGDH inhibition by MF-300Na in vitro.
In this assay, A549 cells are treated with interleukin (IL) 1β, which induces the expression of cycloxygenase-2 and the synthesis of PGE2 (Tong et al., 2006). In the studies evaluating test articles, thirty thousand A549 cells were seeded in 100 μL F12K completed media and incubated for 24 hours at 37° C. with 5% CO2 before being serum-starved for 24 hours. On the day of the experiment, buffer was changed to complete medium, and cells were incubated for 30 minutes with compounds prior to the addition of IL-1β (final concentration of 0.1-0.25 ng/mL) overnight at 37° C. with 5% CO2. Each concentration was run in triplicate. […] The PGE2 in the supernatant was detected and quantified using a Cisbio HTRF technology (Homogeneous Time-Resolved Fluorescence) kit (62P2APEG-62P2APEH) according to the manufacturer's recommendations, quantifying the fold induction of PGE2 of cells treated with IL-1β plus test article, versus treatment with IL-1β only.

| Structure (SMILES) | IC50 (15-PGDH/HPGD) [µM] | PGE2 - HTRF over IL-β induction at 0.001 μM (15-PGDH) | PGE2 - HTRF over IL-β induction at 0.01 μM (15-PGDH) | PGE2 - HTRF over IL-β induction at 0.1 μM (15-PGDH) | PGE2 - HTRF over IL-β induction at 1 μM (15-PGDH) |
| --- | --- | --- | --- | --- | --- |
| CC(C)OC(=O)Nc1cncc(-n2ccc3cc(C(=O)N4CCC(F)(F)CC4)cnc32)c1 [Compound B-88] | < 0.1 | 2.14 | 3.77 | 3.25 | 4.67 |
| CNc1nc2ccc(-n3ccc4cc(C(=O)N5CCC(F)(F)CC5)cnc43)cn2n1 [Compound B-89] | < 0.1 | 1.57 | 3.31 | 3 | 5.13 |
| Cn1cc(C(=O)Nc2cncc(-n3ccc4cc(C(=O)N5CCC(F)(F)CC5)cnc43)c2)cn1 [Compound B-92] | < 0.1 | – | 2.91 and 2.33 | 4.01 and 3.89 | 3.56 and 3.92 |
| CCOC(=O)Nc1cc(-n2ccc3cc(C(=O)N4CCC(F)(F)CC4)cnc32)cnc1C [Compound B-96] | < 0.1 | 0.77 | 1.54 | 3.22 | 5.19 |
| CN(C)c1nc2ccc(-n3ccc4cc(C(=O)N5CCC(F)(F)CC5)cnc43)cn2n1 [Compound B-102] | 0.1 to 1 | 0.95 | 1.08 | 3.09 | 5.02 |
| CCC1CCCN(C(=O)c2cnc3c(ccn3-c3ccc(N4CCOC4=O)nc3)c2)C1 (stereo not shown) [Compound B-113] | < 0.1 | 6.05 | 3.06 | 8.74 | 10.7 |
| O=C(c1cnc2c(ccn2-c2ccc(N3CCOC3=O)nc2)c1)N1CCCC(C(F)(F)F)C1 (stereo not shown) [Compound B-114] | < 0.1 | 2.23 | 5.78 | 7.25 | 11.1 |
| O=C(Nc1cncc(-n2ccc3cc(C(=O)N4CCC(F)(F)CC4)cnc32)c1)C1CCOCC1 [Compound B-232] | < 0.1 | 0.34 | 1.02 | 2.68 | 4.46 |
| O=C(Nc1cncc(-n2ccc3cc(C(=O)N4CCC(F)(F)CC4)cnc32)c1)C1CCCC1 [Compound B-234] | < 0.1 | 0.70 | 4.01 | 4.06 | 3.42 |
| O=C(Nc1cncc(-n2ccc3cc(C(=O)N4CCC(F)(F)CC4)cnc32)c1)C1CCC1 [Compound B-236] | < 0.1 | 1.63 | 3.57 | 6.46 | 8.32 |
